# EP4125905B1, “REGIMEN FOR TREATING A NEISSERIA GONORRHOEAE INFECTION WITH GEPOTIDACIN” (GlaxoSmithKline Intellectual Property Development Limited, priority 2020, dated 2021)
# Where two headings read alike, the source gives them in different places.
# Key:
# NG isolate = assay type: cell-based, Neisseria gonorrhoeae
# Procedure: The results were discussed in VanScoy BD et al., A Hollow-Fiber Infection Model to Evaluate the Prevention of On- Therapy Resistance of Neisseria gonorrhoeae to Gepotidacin.
# 10 mL of an initial bacterial density of 10^6 colony forming units (CFU)/mL was inoculated into the hollow-fiber cartridge (Fibercell Systems, Frederick, MD), utilizing modified FB medium.
# Samples were collected for observation of simulated pharmacokinetic profiles and enumeration of bacterial burden over the study duration. All bacterial samples were plated on drug-free and agar supplemented with 2 x the agar MIC value of each respective challenge compound.
# NG clinical isolate [1] = experiment: microbe, parasite or virus in culture; assay type: cell-based; conditions: Neisseria gonorrhoeae
# [2] = Phase 2a study in female participants with uUTI: urine, plasma, cervical, rectal and pharyngeal swab PK and safety; assay type: in vivo, human
# Procedure: (§1) Gepotidacin exposures were assessed in plasma and other matrices, such as urine, saliva, epithelial lining fluid (ELF), Alveolar Macrophages (AM), cervix, rectum and pharynx, as follows: • 1. Plasma, Epithelial Lining Fluid (ELF) and Alveolar Macrophage (AM) samples: A study to evaluate plasma and pulmonary pharmacokinetics (PK) following intravenous administration of gepotidacin in healthy adult subjects was conducted (see M Hossain, EF Dumont. Population Pharmacokinetic Modeling of Plasma and Epithelial Lining Fluid Data for a Novel Antimicrobial Compound. 54th Annual Interscience Conference on Antimicrobial Agents and Chemotherapy Meeting, 5-9 September 2014, Washington, D.C., USA). • 2. Saliva, Urine and plasma samples: • a. A single-dose study to assess the PK of oral gepotidacin in male and female adult participants with varying degrees of hepatic impairment and in matched control participants with normal hepatic function (J. Hands et al. Pharmacokinetics of Gepotidacin in Subjects with Hepatic Impairment. ID Week, 2-6 October 2019, Washington DC, USA) • b. A single-dose study to assess the PK of gepotidacin in adult subjects with varying degrees of renal impairment and in matched control subjects with normal renal function • 3. Urine, plasma, cervix, rectum and pharynx swabs: In a Phase 2a, single-center, single-arm, open-label study in the Unites States from July 2018 to January 2019 (see Overcash et al., Open Forum Infectious Diseases, Volume 6, Issue Supplement 2, October 2019, Page S539, https://doi.org/10.1093/ofid/ofz360.1343), a total of 22 female participants with uncomplicated Urinary Tract Infection (uUTI) were enrolled and evaluated for pharmacokinetics (PK), safety, and clinical efficacy. Participants were confined to the clinic from baseline (Days -1 to 1 predose) through on-therapy (Days 1 to 5) and returned as outpatients for test-of-cure (TOC; Days 10 to 13) and follow-up (Day 28t3). Participants received oral gepotidacin 1,500 mg twice daily (BID) for 5 days. […] The majority of participants were white, age ranged from 19 to 60 years, and body mass index ranged from 20.9 to 37.9 kg/m^2. The number of past uUTI episodes ranged from 0 to 10 over the past 12 months across participants; the majority of participants reported ≤2 episodes. The mean total clinical symptom score at baseline was 7.9 (range: 4 to 12). All participants reported frequency and urgency, and all but 1 participant (5%) reported dysuria. Gepotidacin exposures in urine, cervix, rectum and pharynx were assessed.
# Plasma, cervix, rectum and pharynx swabs were collected after administration of gepotidacin 1500 mg BID to uUTI patients. […] TABLE 1 Summary of gepotidacin cervical, rectal, pharyngeal, and free plasma concentration time data (µg/ml) (pharmacokinetic population)
# urogenital NG = conditions: cited from earlier work
# [3] = Single-dose saliva, urine and plasma PK of gepotidacin in renal impairment and matched controls; assay type: in vivo, human
# Procedure: as §1
# (§2) Saliva, Urine and Plasma concentrations were determined after administration of gepotidacin 750 mg IV (healthy and renally impaired subjects) and 1500 mg orally (healthy and hepatically impaired subjects, as well as uUTI patients). […]
# urogenital NG isolates = conditions: cited from earlier work
# [4] = Plasma and pulmonary (ELF, AM) pharmacokinetics after intravenous gepotidacin in healthy adult subjects; assay type: in vivo, human
# Procedure: as §1
# Plasma, Epithelial Lining Fluid (ELF) and Alveolar Macrophage (AM) PK were assessed following a single IV infusion of 1000 mg gepotidacin over 2 hours. […] Concentrations in AM and ELF changed in a similar manner as in plasma over the 12-hour sampling period.
# NG clinical isolate [5] = experiment: MIC determination in fastidious broth (FB) medium modified to lack agarose; assay type: cell-based; conditions: Neisseria gonorrhoeae, read-out: gepotidacin broth MIC
# Procedure: The NG clinical isolate evaluated was known to be ciprofloxacin-resistant (minimum inhibitory concentration [MIC]= 2 mg/L), susceptible to ceftriaxone (MIC = 0.004 mg/L), and with a gepotidacin agar/broth MIC of 1/0.5 mg/L. The isolate was collected during the Phase 2 clinical study mentioned above, and contained the mutation, ParC D86N.
# In order to evaluate the MIC of each challenge compound under the liquid conditions utilized in the HFIM, MIC values were determined using fastidious broth (FB) medium modified to lack agarose.
# [6] = Single-dose saliva, urine and plasma PK of oral gepotidacin in hepatic impairment and matched controls; assay type: in vivo, human; conditions: for urinary exposure (AUC[0-48]) relative to matched healthy controls: 1500 mg orally
# Procedure: Gepotidacin exposures were assessed in plasma and other matrices, such as urine, saliva, epithelial lining fluid (ELF), Alveolar Macrophages (AM), cervix, rectum and pharynx, as follows: • 1. Plasma, Epithelial Lining Fluid (ELF) and Alveolar Macrophage (AM) samples: A study to evaluate plasma and pulmonary pharmacokinetics (PK) following intravenous administration of gepotidacin in healthy adult subjects was conducted (see M Hossain, EF Dumont. Population Pharmacokinetic Modeling of Plasma and Epithelial Lining Fluid Data for a Novel Antimicrobial Compound. 54th Annual Interscience Conference on Antimicrobial Agents and Chemotherapy Meeting, 5-9 September 2014, Washington, D.C., USA). • 2. Saliva, Urine and plasma samples: • a. A single-dose study to assess the PK of oral gepotidacin in male and female adult participants with varying degrees of hepatic impairment and in matched control participants with normal hepatic function (J. Hands et al. Pharmacokinetics of Gepotidacin in Subjects with Hepatic Impairment. ID Week, 2-6 October 2019, Washington DC, USA) • b. A single-dose study to assess the PK of gepotidacin in adult subjects with varying degrees of renal impairment and in matched control subjects with normal renal function • 3. Urine, plasma, cervix, rectum and pharynx swabs: In a Phase 2a, single-center, single-arm, open-label study in the Unites States from July 2018 to January 2019 (see Overcash et al., Open Forum Infectious Diseases, Volume 6, Issue Supplement 2, October 2019, Page S539, https://doi.org/10.1093/ofid/ofz360.1343), a total of 22 female participants with uncomplicated Urinary Tract Infection (uUTI) were enrolled and evaluated for pharmacokinetics (PK), safety, and clinical efficacy. […] Gepotidacin exposures in urine, cervix, rectum and pharynx were assessed.
# as §2
# [7] = Safety and pharmacokinetics in healthy adults and adolescents; assay type: in vivo, human
# Procedure: Healthy adults and adolescents within the age ranges of 19-64 and 12-17 years old, respectively, participated in the study.
# In Part 1 of the study, gepotidacin was administered with food to healthy adults (≥ 18 years) in period 1 (1500 mg oral single dose), followed by period 2 (3000 mg x 2 oral doses Q12h) and period 3 (3000 mg x 2 oral doses Q6h).
# In Part 2 of the study, gepotidacin was administered with food to adolescents (12 to < 18 years) at the same dose regimens as period 1 (1500 mg oral single dose) and period 3 (3000 mg x 2 oral doses Q6h).
# [8] = 1500 mg BID, Day 4, 2 hours postdose
# [9] = single IV infusion of 1000 mg over 2 hours, AM versus ELF
# [10] = Period 1, 1500 mg oral single dose
smiles,measurement,setting,value
"CO/N=C(\C(=O)N[C@@H]1C(=O)N2C(C(=O)O)=C(CSc3nc(=O)c(=O)[nH]n3C)CS[C@H]12)c1csc(N)n1 [ceftriaxone, reference compound]",performance of controls in the hollow fibre infection model,"NG isolate; isolate resistant to ciprofloxacin and susceptible to ceftriaxone, simulated 0.5 g oral ciprofloxacin, 0.25 g IM ceftriaxone",performed as expected
same,MIC,NG clinical isolate [1]; read-out: minimum inhibitory concentration [MIC],0.004 µg/mL
"O=c1ccc2ncc(=O)n3c2n1C[C@H]3CN1CCC(NCc2cc3c(cn2)OCCC3)CC1 [gepotidacin, (2R)-2-({4-[(3,4-Dihydro-2H-pyrano[2,3-c]pyridin-6-ylmethyl)amino]-1-piperidinyl}methyl)-1,2-dihydro-3H,8H-2a,5,8a-triazaacenaphthylene-3,8-dione]",doses preventing amplification of resistance within the system,NG isolate; gepotidacin-resistant subpopulation on Day 7,≥ 4.5 g
same,total daily doses that prevented resistance amplification,NG isolate; including 2 doses of 3g administered 8 or 12 hours apart,≥ 4500 mg
same,doses sterilizing the system,"NG isolate; over the seven-day period, simulated single oral doses 0.75 to 12 g",≥ 4.5 g
same,"Cervical concentration, Maximum",[2]; [8],4.25 µg/mL
same,"Cervical concentration, Mean",[2]; [8],1.03 µg/mL
same,"Cervical concentration, Minimum",[2]; [8],0.0190 µg/mL
same,"Free plasma concentration, Maximum",[2]; [8],7500 ng/mL
same,"Free plasma concentration, Mean",[2]; [8],3940 ng/mL
same,"Free plasma concentration, Minimum",[2]; [8],938 ng/mL
same,"Pharyngeal concentration, Maximum",[2]; [8],0.527 µg/mL
same,"Pharyngeal concentration, Mean",[2]; [8],0.140 µg/mL
same,"Pharyngeal concentration, Minimum",[2]; [8],0.0118 µg/mL
same,"Rectal concentration, Maximum",[2]; [8],90.90 µg/mL
same,"Rectal concentration, Mean",[2]; [8],12.3 µg/mL
same,"Rectal concentration, Minimum",[2]; [8],0.0989 µg/mL
same,"Cervical concentration, Maximum","[2]; 1500 mg BID, Day 4, Predose",5.94 µg/mL
same,"Cervical concentration, Mean","[2]; 1500 mg BID, Day 4, Predose",1.30 µg/mL
same,"Cervical concentration, Minimum","[2]; 1500 mg BID, Day 4, Predose",0.0601 µg/mL
same,"Free plasma concentration, Maximum","[2]; 1500 mg BID, Day 4, Predose",1330 ng/mL
same,"Free plasma concentration, Mean","[2]; 1500 mg BID, Day 4, Predose",618 ng/mL
same,"Free plasma concentration, Minimum","[2]; 1500 mg BID, Day 4, Predose",308 ng/mL
same,"Pharyngeal concentration, Maximum","[2]; 1500 mg BID, Day 4, Predose",0.165 µg/mL
same,"Pharyngeal concentration, Mean","[2]; 1500 mg BID, Day 4, Predose",0.0330 µg/mL
same,"Pharyngeal concentration, Minimum","[2]; 1500 mg BID, Day 4, Predose",0.00275 µg/mL
same,"Rectal concentration, Maximum","[2]; 1500 mg BID, Day 4, Predose",36.30 µg/mL
same,"Rectal concentration, Mean","[2]; 1500 mg BID, Day 4, Predose",6.04 µg/mL
same,"Rectal concentration, Minimum","[2]; 1500 mg BID, Day 4, Predose",0.0678 µg/mL
same,discontinuations due to adverse events (AEs),"[2]; oral 1,500 mg BID for 5 days, uUTI participants",no discontinuations due to adverse events
same,urine Ctau exposures,"[2]; uUTI patients, 1500 mg BID, from Day 3 onwards",322 to 352 µg/mL
same,minimum gepotidacin urine concentrations,"[2]; uUTI patients, remained above MIC over the 12-hour dosing interval",> 4 µg/mL
same,participants who failed therapy at the urogenital body site,"urogenital NG; Phase II study, total",3
same,microbiological successes (bacterial eradication),urogenital NG; of the 8 participants with D86N-positive baseline urogenital NG isolates,5
same,efficacy (bacterial eradication) against urogenital infection caused by NG,urogenital NG; single oral dose 1.5g (1500 mg),≥ 95%
same,efficacy (bacterial eradication) against urogenital infection caused by NG,urogenital NG; single oral dose 3g (3000 mg),≥ 95%
same,gepotidacin dose excreted in the urine,[3]; ESRD subjects on hemodialysis,Less than 2%
same,gepotidacin dose removed in the urine (fe%),[3]; End-Stage Renal Disease (ESRD) subjects not on hemodialysis,7.9%
same,gepotidacin dose removed in the urine (fe%),[3]; moderate renal impairment subjects,22.1%
same,gepotidacin dose removed in the urine (fe%),[3]; normal renal function subjects,37.4%
same,baseline gepotidacin MIC,urogenital NG isolates; 2 microbiological successes with D86N-positive baseline organisms,1 µg/mL
same,TOC gepotidacin MICs,urogenital NG isolates; 2 posttreatment isolates that had become resistant,≥ 32 µg/mL
same,Kp,"[4]; human, alveolar macrophages / free plasma, single IV infusion of 1000 mg over 2 hours, read-out: AUC(0-12) ratio of AM to free plasma",178
same,Kp,"[4]; human, epithelial lining fluid / free plasma, single IV infusion of 1000 mg over 2 hours, read-out: AUC(0-12) ratio of ELF to free plasma",1.84
same,fraction unbound,"[4]; human, plasma, read-out: gepotidacin free fraction",0.67
same,"AM exposure AUC(0-12), higher than in ELF",[4]; [9],~97 fold
same,"AM exposure Cmax, higher than in ELF",[4]; [9],approximately 120 fold
same,MIC,NG clinical isolate [5],0.5 µg/mL
same,MIC,NG clinical isolate [1]; read-out: gepotidacin MIC,1 µg/mL
same,MIC,NG clinical isolate [1]; read-out: gepotidacin agar MIC,1 µg/mL
same,Kp,"[6]; human, saliva / unbound plasma, stated across the renal and hepatic impairment studies, read-out: ratio of saliva AUC to unbound plasma AUC (RAUC)",≥ 0.75
same,urinary exposure (AUC[0-48]) relative to matched healthy controls,[6]; moderate hepatic impairment,approximately 3.2 fold
same,urinary exposure (AUC[0-48]) relative to matched healthy controls,[6]; severe hepatic impairment,~3.9 fold
same,tolerability,"[7]; 1500 mg oral single dose, adults and adolescents, few mild GI AEs",generally well tolerated
same,"maximum concentration (Cmax), adolescents compared to adults",[7]; [10],similar
same,"median area under the curve (AUC), adolescents compared to adults",[7]; [10],slightly higher
same,"AUC following the second dose, adolescents versus adults","[7]; Period 3, Q6h regimen",higher
same,"Cmax following the second dose, adolescents versus adults","[7]; Period 3, Q6h regimen",similar
same,"subjects above the value of potential clinical concern, observed","[7]; adolescents Q6h, 3000 mg x 2 oral doses",58%
same,"subjects above the value of potential clinical concern, observed","[7]; adults Q6h, 3000 mg x 2 oral doses",46%
same,"subjects above the value of potential clinical concern, observed","[7]; adults Q12h, 3000 mg x 2 oral doses",15%
same,"AUC0-t exposures following the first dose, Q12 versus Q6h","[7]; adults, 3000 mg dose level",similar
same,"accumulation ratios, Q6h as compared to Q12h","[7]; adults, 3000 mg x 2 oral doses",Higher
same,safety issues related to QT or AchE-I,[7]; in vivo,No observed safety issues
